Several values for one entry are separate records, joined by “and”; a condition that tells them apart may be missing. Equal values may be shown once.
Biological target: T1, GRK2 (Homo sapiens, UniProt P25098)
T1 sequence (P25098 1-689): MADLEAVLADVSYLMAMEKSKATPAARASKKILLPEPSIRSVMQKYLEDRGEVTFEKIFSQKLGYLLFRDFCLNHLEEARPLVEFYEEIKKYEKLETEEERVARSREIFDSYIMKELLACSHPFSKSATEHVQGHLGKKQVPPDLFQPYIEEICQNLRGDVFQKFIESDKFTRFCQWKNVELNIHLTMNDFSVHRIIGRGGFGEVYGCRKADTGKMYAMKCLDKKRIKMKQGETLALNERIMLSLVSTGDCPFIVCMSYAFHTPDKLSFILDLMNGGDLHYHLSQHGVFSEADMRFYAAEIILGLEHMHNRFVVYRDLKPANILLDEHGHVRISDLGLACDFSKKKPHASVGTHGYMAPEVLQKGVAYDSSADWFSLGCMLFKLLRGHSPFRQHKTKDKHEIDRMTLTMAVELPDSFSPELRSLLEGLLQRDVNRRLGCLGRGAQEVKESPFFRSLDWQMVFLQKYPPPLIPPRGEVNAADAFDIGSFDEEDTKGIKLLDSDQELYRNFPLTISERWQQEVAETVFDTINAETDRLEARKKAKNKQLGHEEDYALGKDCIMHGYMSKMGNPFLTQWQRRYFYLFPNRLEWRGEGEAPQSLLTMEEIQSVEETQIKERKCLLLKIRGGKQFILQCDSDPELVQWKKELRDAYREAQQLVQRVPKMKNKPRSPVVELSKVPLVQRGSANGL
Experiment: biochemical
Conditions: GRK2 IC50 (μM), 10 nM GRK2; 10 uM ATP
Description: Positive and negative control wells received an equal volume of DMSO. The final DMSO concentration in the assay is 1%.
The plate was placed in centrifuge equipped with a spin-bucket rotor and spun for 1 min at 1000 rpm.
GRK2 enzymatic reactions were initiated with the addition of 2 μL/well of 50 nM GRK2 in assay buffer. Plates were centrifuged for 1 min at 1000 rpm. For negative control wells, the order of reagent addition was reversed: 10 μL/well ADP detection mix (see below) was added first, followed by the addition of 2 μL/well of the GRK2 solution. Reaction mixtures were incubated at ambient temperature for 2 hours.
Following incubation, the reactions were quenched with 10 μL/well of the Transcreener ADP detection mix. […] The plates were then centrifuged for 1 min at 1000 rpm.
Fluorescence polarization values of the reaction mixtures were read on a Safire II plate reader after a 60 min incubation at ambient temperature. Excitation wavelength=590 nm; emission wavelength=650 nm.
The fluorescence polarization data were converted to % activity as follows:
% activity=(sample−NC)/(PC−NC)*100
where NC is the mean of negative control (ADP detection mix added prior to GRK2 addition), and PC is the mean of positive control (GRK2 reaction without inhibitor). IC50 values are determined from a 4-parameter fit, using the following equation:
Y=Bottom+(Top−Bottom)/(1+10^((Log IC50-X)*Hill slope)),
where X=log10 of the compound concentration.

| SMILES | IC50 |
| --- | --- |
| COc1cccc(Cn2cnc3ccc(-c4cn[nH]c4)cc3c2=O)c1 [Compound 2, 3-(3-Methoxybenzyl)-6-(1H-pyrazol-4-yl)quinazolin-4(3H)-one] | ~0.01 µM and 0.011 µM |

Biological target: T1, GRK2
Experiment: biochemical
Conditions: not given
Description: hGRK2 LANCE Ultra In Vitro Assay
G-protein coupled receptor kinases (GR Kinases) desensitize activated G-protein coupled receptors (GPCRs), by phosphorylation of cytoplasmic loops or carboxyl-terminal tails of GPCRs. GRK2 is one of the 6 different GR kinases and is implicated in heart failure and diabetes.
This assay is sensitive and requires as low as 10 nM enzyme, in a total volume of 10 μL. In addition, the ATP concentration can be varied over a broad range, without interfering with the assay or changing the assay condition. […] Testing inhibitors routinely at both high and low ATP concentrations also enables identification of potential non-ATP competitive inhibitors.
Paroxetine was used as the reference compound in this assay.
Test compounds were dissolved in DMSO at 1 mM and were 3-fold serial diluted. The compound DMSO solutions were then added (100 nL) into a plate well using an acoustic dispenser. To each well was then added 20 nM GRK2 (5 μL) in assay buffer (20 mM HEPES, pH 7.5, 10 mM MgCl2, 0.001% Tween-20®). The plate was sealed and centrifuged at 1000 rpm for 1 min.
The plate and wells containing a mixture of GRK2 and test compound were incubated at ambient temperature for 30 min (prior to initializing the enzymatic reaction).
Enzyme reactions were initiated by the addition of 4.9 μL Substrates/Eu-Ab mix to each well.
The plates were sealed and centrifuged at 1000 rpm for 1 min.
The enzyme reactions were quenched by addition of 10 μL of 12 mM EDTA in 1× LANCE detection solution to each well. The plates were then incubated at ambient temperature for 30 min.
The raw HTRF data were converted to % active as follows:
% active=(sample−NC)/(PC−NC)*100

| SMILES | IC50 |
| --- | --- |
| COc1cccc(Cn2cnc3ccc(-c4cn[nH]c4)c(C#N)c3c2=O)c1 [Compound 1, 3-(3-Methoxybenzyl)-4-oxo-6-(1H-pyrazol-4-yl)-3,4-dihydroquinazoline-5-carbonitrile] | 5 nM |
| COc1cccc(Cn2cnc3ccc(-c4cn[nH]c4)c(F)c3c2=O)c1 [Compound 3, 5-Fluoro-3-(3-methoxybenzyl)-6-(1H-pyrazol-4-yl)quinazolin-4(3H)-one] | 7 nM |
| COc1cccc(Cn2cnc3ccc(-c4cn[nH]c4)c(O)c3c2=O)c1 [Compound 4, 5-Hydroxy-3-(3-methoxybenzyl)-6-(1H-pyrazol-4-yl)quinazolin-4(3H)-one] | 9 nM |
| COc1cccc(Cn2cnc3ccc(-c4cn[nH]c4)c(OC)c3c2=O)c1 [Compound 5, 5-Methoxy-3-[(3-methoxyphenyl)methyl]-6-(1H-pyrazol-4-yl)quinazolin-4-one] | 9 nM |
| COc1cccc(Cn2cnc3cc(OC)c(-c4cn[nH]c4)cc3c2=O)c1 [Compound 6, 7-Methoxy-3-[(3-methoxyphenyl)methyl]-6-(1H-pyrazol-4-yl)quinazolin-4-one] | 16 nM |
| COc1cccc(Cn2cnc3ccc(-c4cn[nH]c4)c(Cl)c3c2=O)c1 [Compound 7, 5-Chloro-3-[(3-methoxyphenyl)methyl]-6-(1H-pyrazol-4-yl)quinazolin-4-one] | 16 nM |
| CCOc1cccc(Cn2cnc3ccc(-c4cn[nH]c4)c(F)c3c2=O)c1 [Compound 8, 3-(3-Ethoxybenzyl)-5-fluoro-6-(1H-pyrazol-4-yl)quinazolin-4(3H)-one] | 29 nM |
| COc1cccc(Cn2cnc3c(F)cc(-c4cn[nH]c4)cc3c2=O)c1 [Compound 9, 8-Fluoro-3-[(3-methoxyphenyl)methyl]-6-(1H-pyrazol-4-yl)quinazolin-4-one] | 93 nM |
| COc1cccc(Cn2c(C)nc3ccc(-c4ccnc(N)n4)cc3c2=O)c1 [Compound 10, 6-(2-Aminopyrimidin-4-yl)-3-[(3-methoxyphenyl)methyl]-2-methyl-quinazolin-4-one] | 371 nM |
| COC(=O)C(c1cccc(OC)c1)n1cnc2ccc(-c3cn[nH]c3)cc2c1=O (stereo not shown) [Compound 11, Methyl 2-(3-methoxyphenyl)-2-[4-oxo-6-(1H-pyrazol-4-yl)quinazolin-3-yl]acetate] | 1410 nM |
| COc1cccc(C(C(=O)O)n2cnc3ccc(-c4cn[nH]c4)cc3c2=O)c1 (stereo not shown) [Compound 12, (3-Methoxyphenyl)-2-[4-oxo-6-(1H-pyrazol-4-yl)quinazolin-3-yl]acetic acid] | 2550 nM |

Same assay, conditions: 10 nM GRK2; ATP 30 or 600 μM, not stated which; read-out: GRK2 Lancer IC50

| SMILES | IC50 |
| --- | --- |
| COc1cccc(Cn2cnc3ccc(-c4cn[nH]c4)cc3c2=O)c1 [Compound 2, 3-(3-Methoxybenzyl)-6-(1H-pyrazol-4-yl)quinazolin-4(3H)-one] | 6 nM |

From patent publication US20220267298A1 (priority 2019, published 2022)
